One data set is described as follows: ANTS/DPX leakage assay. The settings on record: 0.1 mM lipid, 5 mM Hepes, 100 mM NaCl, pH 7.4, 37 °C, data not shown. As to the method: The ANTS/DPX experiment was used to evaluate leakage of encapsulated dyes induced by the peptide. The peptide in 5 mM Hepes and 100 mM NaCl at pH 7.4 was added to the stirred vesicle suspension (0.1 mM lipid) containing ANTS and DPX at 37 °C. Details of this assay have been previously reported.

Data set [1] is described as follows: Circular dichroism spectroscopy in aqueous solution. The class given is physicochemical. The settings on record: room temperature. As to the method: CD spectra were recorded at room temperature on a Jasco J-715 spectropolarimeter in a 0.1 cm quartz cell. The spectra are an average of 3 consecutive scans from 260 to 190 nm, recorded with a band width of 3 nm, a time constant of 16 s, and a scan rate of 10 nm/min. Spectra were recorded and corrected for the blank. Mean residue ellipticities (MRE) were calculated as MRE = Obsd/lcn (Obsd is the ellipticity measured in millidegrees, l is the path length of the cell in cm, c is the peptide concentration in mol/l, and n is the number of amino acid residues in the peptide). A solution of 8 µM of peptide with SUVs, was prepared as previously described. […] The percentage of helix was calculated from measurements of their mean residue ellipticity at 222 nm[44]. We used [ϑ]222 values of 0 and −40.000(1–2.5/n) deg cm^2 dmol^−1 per amino acid residue for 0% and 100% helicity; n is the number of amino acid residues. The ratio of the ellipticities at 222 and 208 nm were used to discriminate between monomeric and oligomeric states of helices. The experiment was performed before and after centrifugation to remove eventual precipitated peptides from solution.

Data set [2] is described as follows: Membrane fluidity, Laurdan generalized polarization (GP). The class given is physicochemical. The settings on record: P/L molar ratio 0.5, after 10 min, 37 °C, 5 mM HEPES, 100 mM NaCl, pH 7.4. As to the method: The samples were vortexed and lyophilized overnight.
LUVs containing Laurdan were prepared to determine membrane fluidity. In order to insert Laurdan into the bilayer, it was added to lipid films before hydration. The peptide gH625 was added to LUVs at a P/L molar ratio of 0.5 and after 10 min the fluorescence spectra were recorded using a 1 cm path length quartz cell, thermostated at 25 °C or 37 °C. Spectra were corrected for the baseline signal. Laurdan emission spectra were recorded from 400 to 550 nm with λex 365 nm in the absence or presence of gH625 in 5 mM HEPES, 100 mM NaCl buffer (pH 7.4). Laurdan emission can shift from 440, in the ordered phase, to 490 in the disordered phase. The excitation generalized polarization (GP) was calculated as GP = (I440 − I490)/(I440 + I490) where I440 and I490 are the fluorescence intensities at the maximum emission wavelength in the ordered (λem 440 nm) and disordered (λem 490 nm) phases.
LUVs fluidity before and after the addition of gH625 were obtained using the fluorescent probe Laurdan[47],[48]. […] The Generalized Polarization (GP) is a parameter commonly used to quantify the change in the lipid fluidity. […] The GP parameter allowed quantifying the effect of the peptide (Table 1). […]

In data set [3] the test system is human neuroblastoma and glioblastoma astrocytoma. Also on record: method as in PMID 25792823. The settings on record: human neuroblastoma and glioblastoma astrocytoma cells; cited from earlier work.

Residues, ends and D or L forms follow the SMILES beside them.

Turning to `CC[C@H](C)[C@H](NC(=O)[C@H](CC(C)C)NC(=O)[C@H](C)NC(=O)[C@H](CC(N)=O)NC(=O)[C@H](Cc1ccc(O)cc1)NC(=O)[C@H](Cc1c[nH]cn1)NC(=O)[C@H](C)NC(=O)[C@H](Cc1c[nH]c2ccccc12)NC(=O)[C@H](CCCNC(=N)N)NC(=O)[C@@H](NC(=O)[C@H](CC(C)C)NC(=O)[C@@H](NC(=O)[C@H](CO)NC(=O)[C@H](C)NC(=O)[C@H](CC(C)C)NC(=O)CNC(=O)[C@@H](N)Cc1c[nH]cn1)[C@@H](C)O)[C@@H](C)O)C(=O)N[C@@H](CCCNC(=N)N)C(=O)N[C@@H](C)C(=O)N[C@@H](Cc1ccccc1)C(N)=O` [gH625] (H-HGLASTLTRWAHYNALIRAF-NH2), the “Leakage of encapsulated dyes (ANTS/DPX)” value in “ANTS/DPX leakage assay” (BBB mimicking LUVs) and in the data set “ANTS/DPX leakage assay” (liver mimicking LUVs) was “did not present any leakage” each time. In addition, the “Secondary structure by CD” value in data set [1] is “mainly random coil structure”. Besides, the “Generalized polarization (GP) value, +gH625” value in data set [2] (Laurdan in LUVs DSPC/POPE/PI/PS/lysoPC/SM/DOPG (37/21/7/9/3/18/5), no peptide 37 °C: 0.40) is 0.49; in data set [2] (Laurdan in LUVs PI/DOPE/DPPC/PS/Chol/SM (4/23/30/8/20/15), no peptide 37 °C: 0.19) it was 0.15. Besides, in data set [3], the Percentage of uptake is listed as 80–90%.
